According to ChEMBL document CHEMBL1201862, “PubChem BioAssay data set” (2004):
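Five concentrations, 48 hours, 96-well plates. GI50 marks 50% less growth.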 Calls of active or inactive are those of the source. Cut-off read from the data, not from the text of the source: active = GI50 up to about 1.1 µM and inactive = higher.

Legend:
Assay in all cases: DTP human tumour cell line panel, 48 h
RPMI-8226 = system: RPMI-8226
K562 = system: K562
KM12 = system: KM12
HCT-15 = system: HCT-15
SW-620 = system: SW-620
PC-3 = system: PC-3
NCI-H226 = system: NCI-H226
SF-268 = system: SF-268
COLO 205 = system: COLO 205
UACC-62 = system: UACC-62
M14 = system: M14
HCC 2998 = system: HCC 2998
SN12C = system: SN12C
DU-145 = system: DU-145
OVCAR-3 = system: OVCAR-3
MDA-MB-435 = system: MDA-MB-435
MCF7 = system: MCF7
CAKI-1 = system: CAKI-1
SK-MEL-2 = system: SK-MEL-2
HL-60 = system: HL-60

Compound	GI50 (RPMI-8226)	GI50 (K562)	GI50 (KM12)	GI50 (HCT-15)	GI50 (SW-620)	GI50 (PC-3)	GI50 (NCI-H226)	GI50 (SF-268)	GI50 (COLO 205)	GI50 (UACC-62)	GI50 (M14)	GI50 (HCC 2998)	GI50 (SN12C)	GI50 (DU-145)	GI50 (OVCAR-3)	GI50 (MDA-MB-435)	GI50 (MCF7)	GI50 (CAKI-1)	GI50 (SK-MEL-2)	GI50 (HL-60)
O=c1[nH]c(=O)n(C2CC(O)C(CO)O2)c2nc3cc4ccccc4cc3nc12 (configuration not stated)	> 100 µM (inactive)	> 100 µM (inactive)	> 100 µM (inactive)	> 100 µM	> 100 µM (inactive)	> 100 µM (inactive)	> 100 µM (inactive)	73.1 µM (inactive)	> 100 µM (inactive)	> 100 µM (inactive)	> 100 µM (inactive)	> 100 µM (inactive)	> 100 µM (inactive)	> 100 µM (inactive)	> 100 µM (inactive)	> 100 µM (inactive)	> 100 µM (inactive)	> 100 µM (inactive)	> 100 µM (inactive)	
COC(=O)c1ccc2c(c1)CC1(C2)Cc2cc3c(c(C(=O)OC)c2C1)CCCC3 (configuration not stated)	38.4 µM (inactive)	41.1 µM (inactive)	> 100 µM (inactive)	67.8 µM	> 100 µM (inactive)	54.1 µM (inactive)	96.8 µM (inactive)	> 100 µM (inactive)	49.4 µM (inactive)	37.1 µM (inactive)		86.5 µM (inactive)	50.1 µM (inactive)	> 100 µM (inactive)	18.3 µM (inactive)	84.1 µM (inactive)	68.5 µM (inactive)	28.8 µM (inactive)		31.5 µM (inactive)
COCCOC(=O)c1c(C)[n+]([O-])c2cc(Cl)c(Cl)cc2[n+]1[O-]	4.69 µM (inactive)	13.7 µM (inactive)	10.8 µM (inactive)	8.71 µM	20 µM (inactive)	21.3 µM (inactive)		14.2 µM (inactive)	12.5 µM (inactive)	14.8 µM (inactive)	18.6 µM (inactive)		20 µM (inactive)	11.5 µM (inactive)	13.4 µM (inactive)	17.5 µM (inactive)	11.1 µM (inactive)	19 µM (inactive)	25.3 µM (inactive)	6.41 µM (inactive)
O=c1oc2c(ccc3ccccc32)cc1C1=CSC2=NCCN12	42.6 µM (inactive)	33.4 µM (inactive)	55.5 µM (inactive)	38.4 µM	29.7 µM (inactive)	71.4 µM (inactive)		57.9 µM (inactive)	50 µM (inactive)	> 100 µM (inactive)	50.2 µM (inactive)	3.82 µM (inactive)	42.4 µM (inactive)	26.5 µM (inactive)	31.6 µM (inactive)	53.3 µM (inactive)	21.8 µM (inactive)	75.5 µM (inactive)	> 100 µM (inactive)	34.7 µM (inactive)
OCCSCCCSCCO		> 100 µM (inactive)	> 100 µM (inactive)	> 100 µM	> 100 µM (inactive)	> 100 µM (inactive)		> 100 µM (inactive)	> 100 µM (inactive)	> 100 µM (inactive)	> 100 µM (inactive)	> 100 µM (inactive)	> 100 µM (inactive)	> 100 µM (inactive)	> 100 µM (inactive)	> 10 µM (inactive)	> 100 µM (inactive)			30.7 µM (inactive)
CSC1=C(C)S/C(=C\c2ccc(/C=C3\SC(C)=C(SC)S3)cc2)S1		> 100 µM (inactive)	> 100 µM (inactive)	> 100 µM	> 100 µM (inactive)	> 100 µM (inactive)	92.5 µM (inactive)	> 100 µM (inactive)	> 100 µM (inactive)	> 100 µM (inactive)	> 100 µM (inactive)	> 100 µM (inactive)	> 100 µM (inactive)	> 100 µM (inactive)	> 100 µM (inactive)	> 100 µM (inactive)	> 100 µM (inactive)	> 100 µM (inactive)	> 100 µM (inactive)	> 100 µM (inactive)
COC(=O)C1(C(=O)OC)CC(=O)c2c(OC(=O)c3cccc(OC)c3C#N)ccc(OC(=O)c3cccc(OC)c3C#N)c2C1	39.1 µM (inactive)	> 100 µM (inactive)	> 100 µM (inactive)	> 100 µM	> 100 µM (inactive)	> 100 µM (inactive)	> 100 µM (inactive)	> 100 µM (inactive)	> 100 µM (inactive)	> 100 µM (inactive)	> 100 µM (inactive)	> 100 µM (inactive)	> 100 µM (inactive)	> 100 µM (inactive)	> 100 µM (inactive)	> 100 µM (inactive)	> 100 µM (inactive)	> 100 µM (inactive)		> 100 µM (inactive)
BrCCCCCOc1ccc(-c2c3ccccc3c(-c3ccc(OCCCCCBr)cc3)c3ccccc23)cc1	> 100 µM (inactive)	> 100 µM (inactive)	> 100 µM (inactive)	> 100 µM	> 100 µM (inactive)	> 100 µM (inactive)	> 100 µM (inactive)	> 100 µM (inactive)	> 100 µM (inactive)	> 100 µM (inactive)	> 100 µM (inactive)	> 100 µM (inactive)	> 100 µM (inactive)	> 100 µM (inactive)		> 100 µM (inactive)	> 100 µM (inactive)	> 100 µM (inactive)	> 100 µM (inactive)	> 100 µM (inactive)
